{"source": "PubChem BioAssay AID1259409", "about": "(Chemical Carcinogenesis Research Information System (CCRIS), 2018)", "origin": "cited, not measured here", "system": "rodent chemically induced tumor inhibition, incidence and multiplicity", "experiment": "CCRIS tumor inhibitor studies", "conditions": "Route [Inhibitor]: ORAL, Promoter: NONE USED"}
{"smiles": "CC1=C(/C=C/C(C)=C/C=C/C(C)=C/C(=O)NCCO)C(C)(C)CCC1", "values": [{"measurement": "tumour outcome (control, treated, inhibition, significance)", "setting": "Carcinogen: N-(4-(5-NITRO-2-FURYL)-2-THIAZOLYL)FORMAMIDE, 24554-26-5, Dose [Inhibitor]: 686 MG/KG/D IN DIET FOR 39 WK STARTING 1 WK POST CARCINOGEN TREATMENT (STUDY DURATION: 50 WK), Species: RAT, Strain/Sex: F344/FEMALE, Target Tissue: Type of Lesion: URINARY BLADDER: CARCINOMA, Dose [Carcinogen]: 2 G/KG/D IN DIET FOR 10 WK", "value": "105/200 (53%), 49/100 (49%), 8%, p<0.5657"}, {"measurement": "tumour outcome (control, treated, inhibition, significance)", "setting": "Carcinogen: N-(4-(5-NITRO-2-FURYL)-2-THIAZOLYL)FORMAMIDE, 24554-26-5, Dose [Inhibitor]: 686 MG/KG/D IN DIET FOR 39 WK STARTING 1 WK POST CARCINOGEN TREATMENT (STUDY DURATION: 50 WK), Species: RAT, Strain/Sex: F344/FEMALE, Target Tissue: Type of Lesion: URINARY BLADDER: PAPILLOMA, Dose [Carcinogen]: 2 G/KG/D IN DIET FOR 10 WK", "value": "15/200 (7.5%), 17/100 (17%), -127%, p<0.012"}, {"measurement": "tumour outcome (control, treated, inhibition, significance)", "setting": "Carcinogen: N-BUTYL-N-(4-HYDROXYBUTYL)NITROSAMINE, 3817-11-6, Dose [Inhibitor]: 0.5 MMOL/KG DIET DAILY FOR 16 WK STARTING 7 D AFTER FINAL CARCINOGEN DOSE (STUDY DURATION: 6 MO), Species: MOUSE, Strain/Sex: B6D2F1/MALE, Target Tissue: Type of Lesion: URINARY BLADDER: CARCINOMA, Dose [Carcinogen]: 5 OR 10 MG 2/WK FOR 9 WK", "value": "36/97 (37%), 22/75 (29%), 22%, not significant"}, {"measurement": "tumour outcome (control, treated, inhibition, significance)", "setting": "Carcinogen: N-BUTYL-N-(4-HYDROXYBUTYL)NITROSAMINE, 3817-11-6, Dose [Inhibitor]: 1 MMOL/KG DIET DAILY FOR 16 WK STARTING 7 D AFTER FINAL CARCINOGEN DOSE (STUDY DURATION: 6 MO), Species: MOUSE, Strain/Sex: B6D2F1/MALE, Target Tissue: Type of Lesion: URINARY BLADDER: CARCINOMA, Dose [Carcinogen]: 5 OR 10 MG 2/WK FOR 9 WK", "value": "36/97 (37%), 17/77 (22%), 41%, p<0.025"}, {"measurement": "tumour outcome (control, treated, inhibition, significance)", "setting": "Carcinogen: N-BUTYL-N-(4-HYDROXYBUTYL)NITROSAMINE, 3817-11-6, Dose [Inhibitor]: 1 MMOL/KG DIET DAILY FOR 108 D STARTING ONE WK AFTER THE FINAL CARCINOGEN DOSE (STUDY DURATION: 171 D), Species: MOUSE, Strain/Sex: BDF1/MALE, Target Tissue: Type of Lesion: URINARY BLADDER: TRANSITIONAL CELL CARCINOMA, Dose [Carcinogen]: 5 MG 2/WK FOR 9 WK", "value": "31/55 (56%), 19/55 (35%), 38%, p<0.05"}, {"measurement": "tumour outcome (control, treated, inhibition, significance)", "setting": "Carcinogen: N-BUTYL-N-(4-HYDROXYBUTYL)NITROSAMINE, 3817-11-6, Dose [Inhibitor]: 1 MMOL/KG DIET DAILY FOR 159 D STARTING ONE WK AFTER THE FINAL CARCINOGEN DOSE (STUDY DURATION: 216 D), Species: MOUSE, Strain/Sex: BDF1/MALE, Target Tissue: Type of Lesion: URINARY BLADDER: TRANSITIONAL CELL CARCINOMA, Dose [Carcinogen]: 7.5 MG 1/WK FOR 8 WK", "value": "29/98 (30%), 14/95 (15%), 50%, p<0.05"}, {"measurement": "tumour outcome (control, treated, inhibition, significance)", "setting": "Carcinogen: N-BUTYL-N-(4-HYDROXYBUTYL)NITROSAMINE, 3817-11-6, Dose [Inhibitor]: 1.0 MMOL/KG/D IN DIET FOR 108 D STARTING 1 WK POST CARCINOGEN TREATMENT (STUDY DURATION: 171 D), Species: MOUSE, Strain/Sex: DBF1/MALE, Target Tissue: Type of Lesion: URINARY BLADDER: TRANSITIONAL CELL CARCINOMA, Dose [Carcinogen]: 5 MG 2/WK FOR 9 WK", "value": "31/55 (56%), 19/55 (35%), 38%, p<0.05"}, {"measurement": "tumour outcome (control, treated, inhibition, significance)", "setting": "Carcinogen: N-BUTYL-N-(4-HYDROXYBUTYL)NITROSAMINE, 3817-11-6, Dose [Inhibitor]: 1.0 MMOL/KG/D IN DIET FOR 159 D STARTING 1 WK POST CARCINOGEN TREATMENT (STUDY DURATION: 216 D), Species: MOUSE, Strain/Sex: DBF1/MALE, Target Tissue: Type of Lesion: URINARY BLADDER: TRANSITIONAL CELL CARCINOMA, Dose [Carcinogen]: 7.5 MG 1/WK FOR 8 WK", "value": "29/98 (30%), 14/95 (15%), 50%, p<0.05"}, {"measurement": "tumour outcome (control, treated, inhibition, significance)", "setting": "Carcinogen: N-BUTYL-N-(4-HYDROXYBUTYL)NITROSAMINE, 3817-11-6, Dose [Inhibitor]: 2 MMOL/KG DIET DAILY FOR 17 WK STARTING 7 D AFTER FINAL CARCINOGEN DOSE (STUDY DURATION: 6 MO), Species: RAT, Strain/Sex: F344/MALE, Target Tissue: Type of Lesion: URINARY BLADDER: TRANSITIONAL CELL CARCINOMA, Dose [Carcinogen]: 200 MG 2/WK FOR 8 WK", "value": "55/60 (92%), 19/30 (63%), 32%, p<0.01"}, {"measurement": "tumour outcome (control, treated, inhibition, significance)", "setting": "Carcinogen: N-BUTYL-N-(4-HYDROXYBUTYL)NITROSAMINE, 3817-11-6, Dose [Inhibitor]: 2 MMOL/KG DIET DAILY FOR 19 WK STARTING 7 D AFTER FINAL CARCINOGEN DOSE (STUDY DURATION: 6 MO), Species: RAT, Strain/Sex: F344/FEMALE, Target Tissue: Type of Lesion: URINARY BLADDER: TRANSITIONAL CELL CARCINOMA, Dose [Carcinogen]: 150 MG 2/WK FOR 6 WK", "value": "28/80 (35%), 5/40 (12%), 66%, p<0.01"}, {"measurement": "tumour outcome (control, treated, inhibition, significance)", "setting": "Carcinogen: N-METHYL-N-NITROSOUREA, 684-93-5, Dose [Inhibitor]: 2 MMOL/KG DIET DAILY STARTING 12 D AFTER CARCINOGEN TREATMENT THROUGH ABOUT 8 MO AFTER CARCINOGEN DOSE (STUDY DURATION:, Species: RAT, Strain/Sex: F344/MALE, Target Tissue: Type of Lesion: COLON: ADENOCARCINOMA, Dose [Carcinogen]: 2.5 MG 1/WK FOR 2 WK", "value": "5/39 (13%), 5/30 (17%), -31%, not significant"}]}
